Assay results reported in EPA's ToxRefDB 2.

Key:
[1] = test system: rat; conditions: Combined chronic toxicity/carcinogenicity, sprague dawley, Oral, Feed, dose end: 24 month, group: systemic
[2] = test system: rat; conditions: Multigenerational reproductive toxicity study, sprague dawley, Oral, Feed, dose end: 2 generation
[3] = test system: dog; conditions: Chronic toxicity, beagle, Oral, Feed, dose end: 52 week, group: systemic
[4] = test system: rabbit; conditions: Prenatal developmental toxicity study, new zealand white, Oral, Gavage/Intubation, dose end: 28 GD
[5] = test system: rat; conditions: Subchronic oral toxicity in rodents, sprague dawley, Feed, dose end: 90 day, group: systemic, systemic / in life observation / body weight / body weight + systemic / in life observation / body weight / body weight gain
[6] = test system: mouse; conditions: Carcinogenicity, cd1, Oral, [Not Specified], dose end: 79 week, group: systemic
[7] = test system: dog; conditions: Subchronic oral toxicity in nonrodent, beagle, Feed, dose end: 13 week, group: systemic, systemic / in life observation / body weight / body weight gain + systemic / in life observation / clinical signs / anemia + systemic / in …
[8] = test system: rat; conditions: Combined chronic toxicity/carcinogenicity, fischer, Oral, Feed, dose end: 105 week, group: systemic
[9] = test system: mouse; conditions: Combined chronic toxicity/carcinogenicity, b6c3f1, Oral, Feed, dose end: 105 week, group: systemic
[10] = test system: rat; conditions: Subchronic oral toxicity in rodents, sprague dawley, Feed, dose end: 13 week, group: systemic, systemic / clinical chemistry / alanine aminotransferase (alt/sgpt) / alanine aminotransferase (alt/sgpt) + systemic / clinical chemistry / …
[11] = test system: rat; conditions: Prenatal developmental toxicity study, fischer, Oral, Feed, dose end: 20 GD
[12] = test system: rat; conditions: Multigenerational reproductive toxicity study, sprague dawley, Oral, Feed, dose end: 3 generation
[13] = test system: mouse; conditions: Developmental neurotoxicity study; cd1; Oral; Feed; dose end: 63 PND; group: cannot be grouped; reproductive / offspring survival early / dead fetuses / dead fetuses
[14] = test system: dog; conditions: Subchronic oral toxicity in nonrodent, beagle, Feed, dose end: 90 day, group: systemic
[15] = test system: dog; conditions: Subchronic oral toxicity in nonrodent, beagle, Feed, dose end: 13 week, group: systemic
[16] = test system: rat; conditions: Subchronic oral toxicity in rodents, sprague dawley, Feed, dose end: 90 day, group: systemic
[17] = test system: rat; conditions: Combined chronic toxicity/carcinogenicity, sprague dawley, Oral, Feed, dose end: 24 month, group: systemic; remark: listed apart in the source
[18] = test system: rat; conditions: Multigenerational reproductive toxicity study, sprague dawley, Oral, Feed, dose end: 2 generation; remark: listed apart in the source
[19] = test system: mouse; conditions: Subchronic oral toxicity in rodents, cd1, Feed, dose end: 13 week, group: systemic
[20] = test system: rat; conditions: Subchronic oral toxicity in rodents, Sprague-Dawley, Feed, dose end: 90 day, group: systemic, systemic / in life observation / body weight / body weight gain
[21] = test system: dog; conditions: Subchronic oral toxicity in nonrodent, beagle, Capsule, dose end: 13 week, group: systemic
[22] = systemic / in life observation / body weight / body weight + systemic / in life observation / food consumption / food consumption + systemic…
[23] = systemic / organ weight / liver / relative to body weight + systemic / pathology microscopic / liver / infiltration cellular
[24] = group: offspring, developmental / developmental landmark / preputial separation / preputial separation + systemic / in life observation / body weight / …
[25] = group: parental, systemic / in life observation / body weight / body weight + systemic / in life observation / body weight / body weight gain + systemic / …
[26] = group: reproductive, reproductive / offspring survival early / dead fetuses / dead fetuses
[27] = systemic / clinical chemistry / alanine aminotransferase (alt/sgpt) / alanine aminotransferase (alt/sgpt)
[28] = systemic / hematology / anemia / anemia - nos + systemic / hematology / erythrocyte (rbc) count differential / erythrocyte (rbc) + systemic…
[29] = group: developmental, developmental / developmental malformation / bone / ossification sites + developmental / developmental malformation / lung / absent + …
[30] = group: maternal, reproductive / reproductive performance / premature delivery / premature delivery + systemic / in life observation / clinical signs / …
[31] = systemic / in life observation / body weight / body weight + systemic / in life observation / body weight / body weight gain + systemic / …
[32] = systemic / in life observation / body weight / body weight gain
[33] = systemic / pathology microscopic / testes / degeneration + systemic / pathology microscopic / liver / carcinoma
[34] = group: developmental, systemic / in life observation / body weight / fetal weight
[35] = group: maternal, systemic / in life observation / body weight / body weight + systemic / in life observation / body weight / body weight gain + systemic / …
[36] = group: maternal, systemic / organ weight / liver / absolute + systemic / organ weight / liver / relative to body weight + systemic / in life observation / …
[37] = group: offspring, developmental / developmental landmark / vaginal opening / vaginal opening + systemic / in life observation / body weight / offspring (pup) …
[38] = group: parental, systemic / in life observation / body weight / body weight + systemic / organ weight / kidney / absolute + systemic / organ weight / kidney…
[39] = group: reproductive, reproductive / reproductive performance / fertility / fertility + reproductive / offspring survival early / litter size / litter size
[40] = systemic / in life observation / body weight / body weight gain + systemic / in life observation / food consumption / food efficiency
[41] = systemic / in life observation / body weight / body weight gain + systemic / in life observation / food consumption / food efficiency + …
[42] = systemic / in life observation / body weight / body weight gain + systemic / in life observation / food consumption / food consumption + …
[43] = systemic / in life observation / food consumption / food consumption + systemic / in life observation / body weight / body weight gain
[44] = systemic / in life observation / body weight / body weight + systemic / in life observation / body weight / body weight gain + systemic / in…
[45] = systemic / organ weight / heart / relative to body weight
[46] = group: offspring, systemic / in life observation / clinical signs / reduced body size
[47] = group: parental, systemic / in life observation / food consumption / food consumption
[48] = group: parental, systemic / in life observation / food consumption / food consumption + systemic / in life observation / body weight / body weight + systemic…
[49] = group: reproductive, reproductive / offspring survival early / litter size / litter size
[50] = systemic / in life observation / body weight / body weight gain + systemic / in life observation / body weight / body weight + systemic / in…
[51] = systemic / clinical chemistry / gamma glutamyl transferase (ggt) / gamma glutamyl transferase (ggt) + systemic / in life observation / …

## CN/C(=N\[N+](=O)[O-])NCc1cnc(Cl)s1 [Clothianidin]
[1]; [22]
  LOAEL: 97.8 mg/kg/day
  NOAEL: 32.5 mg/kg/day
[1]; [23]
  LEL: 9.7 mg/kg/day
  NEL: < 9.7 mg/kg/day
[2]; [24]
  LEL: 34.3 mg/kg/day
  LOAEL: 34.3 mg/kg/day
  NEL: 10.7 mg/kg/day
  NOAEL: 10.7 mg/kg/day
[2]; [25]
  LEL: 163 mg/kg/day
  LOAEL: 163 mg/kg/day
  NEL: 31.2 mg/kg/day
  NOAEL: 31.2 mg/kg/day
[2]; [26]
  LEL: 31.2 mg/kg/day
  LOAEL: 31.2 mg/kg/day
  NEL: 9.8 mg/kg/day
  NOAEL: 9.8 mg/kg/day
[3]; [27]
  LEL: 36.3 mg/kg/day
  NEL: 16.6 mg/kg/day
[3]; [28]
  LOAEL: 52.9 mg/kg/day
  NOAEL: 40.1 mg/kg/day
[4]; group: developmental, developmental / developmental malformation / bone / ossification sites + developmental / developmental malformation / lung / absent
  LOAEL: 75 mg/kg/day
[4]; [29]
  LEL: 75 mg/kg/day
  NEL: 25 mg/kg/day
  NOAEL: 25 mg/kg/day
[4]; [30]
  LEL: 75 mg/kg/day
  LOAEL: 75 mg/kg/day
  NEL: 25 mg/kg/day
  NOAEL: 25 mg/kg/day
[5]
  LEL: 202 mg/kg/day
  LOAEL: 202 mg/kg/day
  NOAEL: 27.9 mg/kg/day
[6]; systemic / in life observation / body weight / body weight + systemic / in life observation / body weight / body weight gain
  LOAEL: 216 mg/kg/day
[6]; [31]
  NOAEL: 65.1 mg/kg/day
[6]; systemic / in life observation / clinical signs / excessive or spontaneous vocalization
  LEL: 171 mg/kg/day
[6]; systemic / in life observation / clinical signs / excessive or spontaneous vocalization + systemic / in life observation / body weight / …
  NEL: 47.2 mg/kg/day
[7]
  LEL: 40.9 mg/kg/day
  LOAEL: 40.9 mg/kg/day
  NEL: 19.3 mg/kg/day
  NOAEL: 19.3 mg/kg/day

## CCCCC(CC)COC(=O)c1ccccc1C(=O)OCC(CC)CCCC (stereo unspecified) [Di(2-ethylhexyl) phthalate]
[8]; [32]
  LEL: 300 mg/kg/day
  NEL: < 300 mg/kg/day
[8]; systemic / in life observation / body weight / body weight gain + systemic / pathology microscopic / liver / carcinoma + systemic / in life …
  NOAEL: 300 mg/kg/day
[8]; systemic / in life observation / body weight / body weight gain + systemic / pathology microscopic / testes / degeneration
  LOAEL: 600 mg/kg/day
[9]; systemic / pathology microscopic / liver / carcinoma + systemic / in life observation / body weight / body weight + systemic / in life …
  NEL: 450 mg/kg/day
[9]; systemic / pathology microscopic / testes / degeneration
  LOAEL: 900 mg/kg/day
[9]; [33]
  LEL: 900 mg/kg/day
  NOAEL: 450 mg/kg/day
[10]
  LEL: 0.25 mg/kg/day
  LOAEL: > 250 mg/kg/day
  NEL: < 0.25 mg/kg/day
  NOAEL: ≥ 250 mg/kg/day
[11]; [34]
  LEL: 666 mg/kg/day
  LOAEL: 666 mg/kg/day
  NEL: 357 mg/kg/day
  NOAEL: 357 mg/kg/day
[11]; [35]
  LOAEL: 666 mg/kg/day
  NOAEL: 357 mg/kg/day
[11]; [36]
  LEL: 357 mg/kg/day
  NEL: < 357 mg/kg/day
[12]; [37]
  LEL: 391 mg/kg/day
  LOAEL: > 391 mg/kg/day
  NEL: 48 mg/kg/day
  NOAEL: ≥ 391 mg/kg/day
[12]; [38]
  LOAEL: > 391 mg/kg/day
  NEL: 14 mg/kg/day
  NOAEL: ≥ 391 mg/kg/day
[12]; group: parental, systemic / organ weight / liver / relative to body weight + systemic / pathology microscopic / kidney / dilatation + systemic / pathology …
  LEL: 48 mg/kg/day
[12]; group: reproductive, reproductive / reproductive performance / fertility / fertility
  NEL: 48 mg/kg/day
[12]; [39]
  LEL: 391 mg/kg/day
  LOAEL: > 391 mg/kg/day
  NOAEL: ≥ 391 mg/kg/day
[13]
  LEL: 171 mg/kg/day
  NEL: 56 mg/kg/day

## O=C(Nc1ccccc1)Nc1ccnc(Cl)c1 [Forchlorfenuron]
[14]; [40]
  LOAEL: 173 mg/kg/day
  NOAEL: < 173 mg/kg/day
[14]; [41]
  LEL: 173 mg/kg/day
  NEL: < 173 mg/kg/day
[15]; [42]
  LOAEL: 162 mg/kg/day
  NOAEL: 16.8 mg/kg/day
[15]; [43]
  LEL: 1.8 mg/kg/day
  NEL: < 1.8 mg/kg/day
[16]; [44]
  LOAEL: 428 mg/kg/day
  NOAEL: 84 mg/kg/day
[16]; [45]
  LEL: 16 mg/kg/day
  NEL: < 16 mg/kg/day
[17]; [31]
  LOAEL: 93 mg/kg/day
  NOAEL: 7 mg/kg/day
[17]; systemic / pathology microscopic / kidney / dilatation + systemic / organ weight / adrenal gland / absolute + systemic / organ weight / …
  NEL: 518 mg/kg/day
[18]; group: offspring, systemic / in life observation / body weight / offspring (pup) weight + developmental / offspring survival late / lactation index / …
  NOAEL: 13 mg/kg/day
[18]; group: offspring, systemic / in life observation / body weight / offspring (pup) weight + systemic / in life observation / clinical signs / reduced body size
  LOAEL: 168 mg/kg/day
[18]; [46]
  LEL: 13 mg/kg/day
  NEL: < 13 mg/kg/day
[18]; [47]
  LEL: 144 mg/kg/day
  LOAEL: 144 mg/kg/day
[18]; [48]
  NEL: 11 mg/kg/day
  NOAEL: 11 mg/kg/day
[18]; [49]
  LEL: 829 mg/kg/day
  LOAEL: 829 mg/kg/day
  NEL: 168 mg/kg/day
  NOAEL: 168 mg/kg/day
[19]; [32]
  LOAEL: 1290 mg/kg/day
[19]; [50]
  LEL: 1290 mg/kg/day
  NEL: 609 mg/kg/day
  NOAEL: 609 mg/kg/day

## CCc1cccc(C)c1N(C(=O)CS(=O)(=O)O)C(C)COC (stereo unspecified) [Metolachlor ESA]
[20]
  LEL: 1540 mg/kg/day
  LOAEL: > 1540 mg/kg/day
  NEL: 427 mg/kg/day
  NOAEL: ≥ 1540 mg/kg/day
[21]; systemic / clinical chemistry / gamma glutamyl transferase (ggt) / gamma glutamyl transferase (ggt) + systemic / clinical chemistry / …
  LEL: 200 mg/kg/day
[21]; [51]
  LOAEL: > 1000 mg/kg/day
  NOAEL: ≥ 1000 mg/kg/day
